Assay [1] concerns the target full-length human recombinant BTK (Homo sapiens (Human), UniProt Q06187). Put plainly: Inhibition of Btk enzymatic activity (biochemical enzyme assay, Caliper). To be noted: 6.4 nM enzyme solution, 164 μM ATP solution, 30° C., 60 minutes. As for the experimental part: The inhibitory activity of the present compounds against Btk was assessed in a biochemical enzyme assay. […] The assay plates were prepared by addition of 50 nl per well of compound solution in 90% DMSO. […] Kinase reactions were analyzed on a Caliper LC3000 workstation by separating phosphorylated and unphosphorylated peptides and kinase activities were calculated from the amounts of newly formed phospho-peptide.

A further assay has as its target Btk (Rattus norvegicus, UniProt Q5S255). Put plainly: Inhibition of Btk activity in blood (in vitro B cell activation assay, CD86, rat whole blood). The class given is cell-based. Conditions: Lewis rat whole blood diluted to 50%, anti-rat IgM + rat IL-4, 24 hours, CD86 on CD45RA positive B cells. The method, then:
Alternatively, the inhibitory activity of the present compounds in blood was assessed in the following in vitro B cell activation assay. Whole blood was collected from the abdominal aorta of anaesthetized adult male Lewis rats and was anticoagulated with 100 U/ml sodium heparin. Blood was then diluted to 50% with high glucose DMEM (Amimed) supplemented with […] penicillin, […], 2 mM L-glutamin, 50 mg/ml dextran 40 and 5% FCS (Fetaclone I, Gibco). Then, 190 μl prediluted blood was mixed in 96 well U-bottomed microtiter plates (Nunc) with 10 μl of serial dilutions of test compounds in DMSO. […] Activation of B cells was measured by flow cytometry after staining for the B cell subset with PE-Cy5-labeled anti-ratCD45RA (Beckton-Dickinson) and for the activation marker CD86 (PE-labeled anti-rat CD86 (Beckton-Dickinson). All staining procedures were performed at RT for 30 min in the dark in 96-deep well V-bottomed microtiter plates (Corning) with BD Lysing Solution (Beckton-Dickinson).
Cytometric data was acquired on a FACScalibur flow cytometer (BD Biosciences) and the subpopulation of lymphocytes were gated according to size and granularity and further analyzed for expression of CD45RA and the activation markers. Data for the inhibition of B cell activation were calculated from the percentage of cells positively stained for activation markers within the CD45RA positive population.

Sequence of full-length human recombinant BTK (Q06187 whole entry): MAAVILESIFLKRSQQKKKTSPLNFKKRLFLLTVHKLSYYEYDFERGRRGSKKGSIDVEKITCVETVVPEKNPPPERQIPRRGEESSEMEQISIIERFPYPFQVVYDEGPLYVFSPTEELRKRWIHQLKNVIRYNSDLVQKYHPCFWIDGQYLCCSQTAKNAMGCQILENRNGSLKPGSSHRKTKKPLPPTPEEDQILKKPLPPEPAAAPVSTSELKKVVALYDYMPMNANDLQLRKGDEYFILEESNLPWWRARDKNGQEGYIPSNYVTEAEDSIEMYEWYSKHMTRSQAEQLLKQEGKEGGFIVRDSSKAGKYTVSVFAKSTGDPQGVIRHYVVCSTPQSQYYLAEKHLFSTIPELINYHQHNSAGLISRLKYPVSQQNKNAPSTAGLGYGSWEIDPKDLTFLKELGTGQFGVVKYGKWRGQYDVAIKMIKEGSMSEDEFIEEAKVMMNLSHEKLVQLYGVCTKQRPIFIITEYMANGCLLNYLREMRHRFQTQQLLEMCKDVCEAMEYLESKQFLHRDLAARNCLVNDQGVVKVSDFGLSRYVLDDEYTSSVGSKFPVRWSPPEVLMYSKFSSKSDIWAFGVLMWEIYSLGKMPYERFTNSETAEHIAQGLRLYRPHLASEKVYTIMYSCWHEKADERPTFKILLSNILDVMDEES
Sequence of Btk (Q5S255 1-660): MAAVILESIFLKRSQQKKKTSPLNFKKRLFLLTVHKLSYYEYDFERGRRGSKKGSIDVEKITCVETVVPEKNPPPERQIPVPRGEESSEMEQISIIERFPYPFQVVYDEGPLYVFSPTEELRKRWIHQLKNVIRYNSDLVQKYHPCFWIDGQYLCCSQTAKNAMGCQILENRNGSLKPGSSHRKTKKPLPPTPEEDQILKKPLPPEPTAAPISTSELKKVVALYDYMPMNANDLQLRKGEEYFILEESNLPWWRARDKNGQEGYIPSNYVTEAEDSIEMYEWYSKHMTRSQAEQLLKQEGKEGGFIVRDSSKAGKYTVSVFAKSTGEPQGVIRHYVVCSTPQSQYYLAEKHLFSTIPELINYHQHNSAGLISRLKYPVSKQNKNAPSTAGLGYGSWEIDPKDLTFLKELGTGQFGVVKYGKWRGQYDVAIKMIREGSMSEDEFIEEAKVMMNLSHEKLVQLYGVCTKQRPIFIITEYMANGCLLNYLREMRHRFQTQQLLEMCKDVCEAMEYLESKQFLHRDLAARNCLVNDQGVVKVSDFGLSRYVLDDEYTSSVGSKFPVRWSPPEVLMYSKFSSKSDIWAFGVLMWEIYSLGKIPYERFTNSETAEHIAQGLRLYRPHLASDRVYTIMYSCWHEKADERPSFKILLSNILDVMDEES

Take `CC#CC(=O)N1C[C@H](F)C[C@H]1COc1c(N)ncnc1-c1cc(F)cc(NC(=O)c2ccc(C3CC3)cc2F)c1C` [Example 32, N-(3-(6-Amino-5-(((2S,4R)-1-(but-2-ynoyl)-4-fluoropyrrolidin-2-yl)methoxy)pyrimidin-4-yl)-5-fluoro-2-methylphenyl)-4-cyclopropyl-2-fluorobenzamide]: the values for the IC50 (in assay [1]; on Btk) were 0.004 µM and 0.055 µM, respectively.
Consider `CC#CC(=O)N(C)[C@@H](C)COc1c(N)ncnc1-c1cc(F)cc(NC(=O)c2ccc(C3CC3)cc2F)c1C` [Example 20, (S)—N-(3-(6-Amino-5-(2-(N-methylbut-2-ynamido)propoxy)pyrimidin-4-yl)-5-fluoro-2-methylphenyl)-4-cyclopropyl-2-fluorobenzamide], for which the results for the half-maximal inhibitory concentration (IC50) (in assay [1]; on Btk) were 0.005 µM and 0.33 µM, respectively.
`Cc1c(NC(=O)c2ccc(C3CC3)cc2F)cc(F)cc1-c1ncnc(N)c1OCCN(C)C(=O)C1CO1` (stereo not shown) [Example 11, N-(2-((4-Amino-6-(3-(4-cyclopropyl-2-fluorobenzamido)-5-fluoro-2-methylphenyl)pyrimidin-5-yl)oxy)ethyl)-N-methyloxirane-2-carboxamide]: the values for the concentration for half-maximal inhibition (IC50) (in assay [1]; on Btk) were 0.01 µM and 0.323 µM, respectively.
`C=CC(=O)N1CC[C@H](OC)[C@H]1COc1c(N)ncnc1-c1cc(F)cc(NC(=O)c2ccc(C3CC3)cc2F)c1C` [Example 38, N-(3-(5-(((2R,3S)-1-Acryloyl-3-methoxypyrrolidin-2-yl)methoxy)-6-aminopyrimidin-4-yl)-5-fluoro-2-methylphenyl)-4-cyclopropyl-2-fluorobenzamide]: the IC50 in assay [1] was found to be 0.002 µM; on Btk, 0.07 µM.
For `C=CC(=O)N[C@@H](C)COc1c(N)ncnc1-c1cc(F)cc(NC(=O)c2ccc(C3CC3)cc2F)c1C` [Example 17, (S)—N-(3-(5-(2-Acrylamidopropoxy)-6-aminopyrimidin-4-yl)-5-fluoro-2-methylphenyl)-4-cyclopropyl-2-fluorobenzamide] the same measures were 0.005 µM and 0.246 µM.
In the same order, the values of `COC/C=C/C(=O)N(C)CCOc1c(N)ncnc1-c1cc(F)cc(NC(=O)c2ccc(C3CC3)cc2F)c1C` [Example 9, (E)-N-(3-(6-Amino-5-(2-(4-methoxy-N-methylbut-2-enamido)ethoxy)pyrimidin-4-yl)-5-fluoro-2-methylphenyl)-4-cyclopropyl-2-fluorobenzamide] are 0.01 µM and 0.24 µM.
For `C#CC(=O)N1CC[C@H]1COc1c(N)ncnc1-c1cc(F)cc(NC(=O)c2ccc(C3CC3)cc2F)c1C` [Example 34, (S)—N-(3-(6-Amino-5-((1-propioloylazetidin-2-yl)methoxy)pyrimidin-4-yl)-5-fluoro-2-methylphenyl)-4-cyclopropyl-2-fluorobenzamide] the same measures were 0.002 µM and 0.208 µM.
Regarding `CC#CC(=O)N[C@@H](C)COc1c(N)ncnc1-c1cc(F)cc(NC(=O)c2ccc(C3CC3)cc2F)c1C` [Example 18, (S)—N-(3-(6-Amino-5-(2-(but-2-ynamido)propoxy)pyrimidin-4-yl)-5-fluoro-2-methylphenyl)-4-cyclopropyl-2-fluorobenzamide], the concentration for half-maximal inhibition (IC50) in assay [1] was 0.001 µM; at Btk it was 0.419 µM.
For `C=CC(=O)N1C[C@H](OC)C[C@H]1COc1c(N)ncnc1-c1cc(F)cc(NC(=O)c2ccc(C3CC3)cc2F)c1C` [Example 26, N-(3-(5-(((2S,4R)-1-Acryloyl-4-methoxypyrrolidin-2-yl)methoxy)-6-aminopyrimidin-4-yl)-5-fluoro-2-methylphenyl)-4-cyclopropyl-2-fluorobenzamide] the same measures were 0.0004 µM and 0.051 µM.
As to `C=CC(=O)N(CCF)CCOc1c(N)ncnc1-c1cc(F)cc(NC(=O)c2ccc(C3CC3)cc2F)c1C` [Example 15, N-(3-(6-Amino-5-(2-(N-(2-fluoroethyl)acrylamido)ethoxy)pyrimidin-4-yl)-5-fluoro-2-methylphenyl)-4-cyclopropyl-2-fluorobenzamide], the figures for the IC50 (in assay [1]; at Btk) were 0.001 µM and 0.029 µM, respectively.
In the same order, the values of `C=CC(=O)N(C)CCOc1c(N)ncnc1-c1cc(F)cc(N2CCc3cc(C4CC4)ccc3C2=O)c1CO` [Example 25, N-(2-((4-Amino-6-(3-(6-cyclopropyl-1-oxo-3,4-dihydroisoquinolin-2(1H)-yl)-5-fluoro-2-(hydroxymethyl)phenyl)pyrimidin-5-yl)oxy)ethyl)-N-methylacrylamide] are 0.001 µM and 0.065 µM.

Usually IC50 stands for the concentration that gives 50% inhibition.
